Laboratory results: patent US20170001990A1 (Genentech, Inc., priority 2014, published 2017)
“And” between values parts separate entries of the source, which are not always exact repeats. Equal entries are not always repeated.

Molecular target: Human recombinant carboxy-terminal his-tagged LDHA (amino acids 2-332) (Homo sapiens, UniProt P00338)
Test: LDHA enzyme inhibition assay (NADH fluorescence)
Conditions: LDHA IC50 (μM), 1 nM LDHA, NADH and pyruvate, stereochemistry of tested sample given

Row | Compound | IC50
1 | CC(C)(C)COc1cccc(C2(c3ccsc3)CC(=O)C(Sc3ccccc3Cl)C(=O)N2)n1 (stereo not shown) [Example 226, 3-(2-chlorophenyl)sulfanyl-6-[6-(2,2-dimethylpropoxy)-2-pyridyl]-6-(3-thienyl) piperidine-2,4-dione] | 0.02 µM
2 | O=C1CCC(COc2cccc(C3(c4ccsc4)CC(=O)C(Sc4ccccc4Cl)C(=O)N3)n2)O1 (single isomer, unassigned) [Example 193, 3-(2-chlorophenyl)sulfanyl-6-[6-[(5-oxotetrahydrofuran-2-yl)methoxy]-2-pyridyl]-6-(3-thienyl)piperidine-2,4-dione] | 0.059 µM
3 | O=C1CC(c2ccsc2)(c2cccc(Oc3ccc(Cl)cc3)n2)NC(=O)C1Sc1ccccc1Cl (stereo not shown) [Example 167, 6-[6-(4-chlorophenoxy)-2-pyridyl]-3-(2-chlorophenyl) sulfanyl-6-(3-thienyl) piperidine-2,4-dione] | 0.006 µM
4 | O=C1CC(c2ccsc2)(c2cccc(OCCC3COC3)n2)NC(=O)C1Sc1ccccc1Cl (stereo not shown) [Example 16, 3-(2-chlorophenyl)sulfanyl-6-[6-[2-(oxetan-3-yl)ethoxy]-2-pyridyl]-6-(3-thienyl)piperidine-2,4-dione] | 0.105 µM and 0.076 µM
5 | O=C1CC(c2ccsc2)(c2cccc(OCCC3CCCCC3)n2)NC(=O)C1Sc1ccccc1Cl (single isomer, unassigned) [Example 208, 3-(2-chlorophenyl)sulfanyl-6-[6-(2-cyclohexylethoxy)-2-pyridyl]-6-(3-thienyl) piperidine-2,4-dione] | 0.149 µM
6 | CCOCCOc1cccc(C2(c3ccsc3)CC(=O)C(Sc3ccccc3Cl)C(=O)N2)n1 (single isomer, unassigned) [Example 227, 3-(2-chlorophenyl)sulfanyl-6-[6-(2-ethoxyethoxy)-2-pyridyl]-6-(3-thienyl) piperidine-2,4-dione] | 0.015 µM
7 | O=C1C[C@](c2ccsc2)(c2cccc(Oc3ccc(Br)cc3Cl)n2)NC(=O)C1Sc1ccccc1Cl (stereo partly drawn) [Example 327, (6S)-6-[6-(4-bromo-2-chloro-phenoxy)-2-pyridyl]-3-(2-chlorophenyl) sulfanyl-6-(3-thienyl) piperidine-2,4-dione] | 0.035 µM
8 | COCc1ccccc1Oc1cccc(C2(c3ccsc3)CC(=O)C(Sc3ccccc3Cl)C(=O)N2)n1 (stereo not shown) [Example 94] | 0.023 µM
9 | O=C1CC(c2ccsc2)(c2cccc(Oc3ccccc3Br)n2)NC(=O)C1Sc1ccccc1Cl (single isomer, unassigned) [Example 172, 6-[6-(2-bromophenoxy)-2-pyridyl]-3-(2-chloro-phenyl)sulfanyl-6-(3-thienyl)piperidine-2,4-dione] | 0.056 µM
10 | CCOCC(C)Oc1cccc(C2(c3ccsc3)CC(=O)C(Sc3ccccc3Cl)C(=O)N2)n1 (stereo not shown) [Example 247, 3-((2-chlorophenyl)thio)-6-(6-((1-ethoxypropan-2-yl)oxy)pyridin-2-yl)-6-(thiophen-3-yl)piperidine-2,4-dione] | 0.01 µM
11 | O=C1CC(c2ccsc2)(c2cccc(Oc3ccccc3F)n2)NC(=O)C1Sc1ccccc1Cl (stereo not shown) [Example 52, 3-(2-chlorophenyl)sulfanyl-6-[6-(2-fluorophenoxy)-2-pyridyl]-6-(3-thienyl)piperidine-2,4-dione] | 0.045 µM
12 | O=C1CC(c2ccsc2)(c2ccc(N3CCOCC3)c(F)c2)NC(=O)C1Sc1ccccc1Cl (stereo not shown) [Example 328, 3-(2-chlorophenyl)sulfanyl-6-(3-fluoro-4-morpholino-phenyl)-6-(3-thienyl)piperidine-2,4-dione] | 0.054 µM
13 | O=C1CC(c2ccsc2)(c2cccc(CCc3ccc(F)cc3)n2)NC(=O)C1Sc1ccccc1Cl (single isomer, unassigned) [Example 293, 3-((2-chlorophenyl)thio)-6-(6-(4-fluorophenethyl)pyridin-2-yl)-6-(thiophen-3-yl)piperidine-2,4-dione] | 0.091 µM
14 | O=C1CC(c2ccsc2)(c2cccc(CCc3ccc(F)cc3)n2)NC(=O)C1Sc1ccccc1Cl (single isomer, unassigned) [Example 268, 3-((2-chlorophenyl)thio)-6-(6-(4-fluorophenethyl)pyridin-2-yl)-6-(thiophen-3-yl)piperidine-2,4-dione] | 0.402 µM
15 | O=C1CC(c2ccsc2)(c2cccc(OCCC3CCCC3)n2)NC(=O)C1Sc1ccccc1Cl (single isomer, unassigned) [Example 125, 3-((2-chlorophenyl)thio)-6-(6-(2-cyclopentyl-ethoxy)pyridin-2-yl)-6-(thiophen-3-yl) piperidine-2,4-dione] | 0.003 µM
16 | O=C1C[C@](c2ccsc2)(c2cccc(Oc3ccc(F)nc3Cl)n2)NC(=O)C1Sc1ccccc1Cl (mixture of isomers) [Example 325, (6S)-6-[6-[(2-chloro-6-fluoro-3-pyridyl)oxy]-2-pyridyl]-3-(2-chlorophenyl) sulfanyl-6-(3-thienyl) piperidine-2,4-dione] | 0.162 µM
17 | CCC(C)COc1cccc(C2(c3ccsc3)CC(=O)C(Sc3ccccc3Cl)C(=O)N2)n1 (stereo not shown) [Example 164, 3-(2-chlorophenyl)sulfanyl-6-[6-(2-methylbutoxy)-2-pyridyl]-6-(3-thienyl) piperidine-2,4-dione] | 0.009 µM
18 | Cc1cc(Oc2cccc(C3(c4ccsc4)CC(=O)C(Sc4ccccc4Cl)C(=O)N3)n2)ccc1F (stereo not shown) [Example 51, 5-((2-chlorophenyl)thio)-6′-(4-fluoro-3-methyl-phenoxy)-4-hydroxy-2-(thiophen-3-yl)-2,3-dihydro-[2,2′-bipyridin]-6(1H)-one] | 0.149 µM
19 | CC1(C)OCC(CCOc2cccc(C3(c4ccsc4)CC(=O)C(Sc4ccccc4Cl)C(=O)N3)n2)O1 (stereo not shown) [Example 211, 3-(2-chlorophenyl)sulfanyl-6-[6-[2-(2,2-dimethyl-1,3-dioxolan-4-yl)ethoxy]-2-pyridyl]-6-(3-thienyl) piperidine-2,4-dione] | 0.183 µM
20 | O=C1CC(c2ccsc2)(c2cccc(Cc3ccccc3)n2)NC(=O)C1Sc1ccccc1Cl (single isomer, unassigned) [Example 180, 6-(6-benzyl-2-pyridyl)-3-(2-chlorophenyl)sulfanyl-6-(3-thienyl)piperidine-2,4-dione] | 0.002 µM
21 | O=C1CC(c2ccsc2)(c2cccc(Oc3ccc4ncccc4c3)n2)NC(=O)C1Sc1ccccc1Cl (single isomer, unassigned) [Example 117, 3-(2-chlorophenyl)sulfanyl-6-[6-(6-quinolyloxy)-2-pyridyl]-6-(3-thienyl) piperidine-2,4-dione] | 0.076 µM

Further lines, results first:

Row | IC50 | Compound
22 | 0.087 µM | O=C1CC(c2ccsc2)(c2cccc(Cc3ccc(F)cc3F)n2)NC(=O)C1Sc1ccccc1Cl (stereo not shown) [Example 258, 3-((2-chlorophenyl)thio)-6-(6-(2,4-difluorobenzyl)pyridin-2-yl)-6-(thiophen-3-yl)piperidine-2,4-dione]
23 | 0.019 µM | O=C1CC(c2ccsc2)(c2cccc(Oc3ccccn3)n2)NC(=O)C1Sc1ccccc1Cl (stereo not shown) [Example 96, 3-(2-chlorophenyl)sulfanyl-6-[6-(2-pyridyloxy)-2-pyridyl]-6-(3-thienyl) piperidine-2,4-dione]
24 | 0.015 µM | O=C1CC(c2ccsc2)(c2cccc(Oc3ccc(OC(F)(F)F)cc3)n2)NC(=O)C1Sc1ccccc1Cl (stereo not shown) [Example 76, 3-(2-chlorophenyl)sulfanyl-6-(3-thienyl)-6-[6-[4-(trifluoromethoxy)phenoxy]-2-pyridyl] piperidine-2,4-dione]
25 | 0.022 µM | O=C1CC(c2ccsc2)(c2cccc(Oc3ccc(F)cc3F)n2)NC(=O)C1Sc1ccccc1Cl (stereo not shown) [Example 50, 3-(2-chlorophenyl) sulfanyl-6-[6-(2,4-difluorophenoxy)-2-pyridyl]-6-(3-thienyl)piperidine-2,4-dione]
26 | 0.004 µM | O=C1CC(c2ccc(N3CCOCC3)cc2)(c2cccc(Br)n2)NC(=O)C1Sc1ccccc1Cl (stereo not shown) [Example 38, 6-(6-bromopyridin-2-yl)-3-((2-chlorophenyl)thio)-6-(4-morpholinophenyl)piperidine-2,4-dione]
27 | 0.021 µM | O=C1CC(c2ccsc2)(c2cccc(OCC3CCCO3)n2)NC(=O)C1Sc1ccccc1Cl (single isomer, unassigned) [Example 235, 3-(2-chlorophenyl)sulfanyl-6-[6-(tetrahydrofuran-2-ylmethoxy)-2-pyridyl]-6-(3-thienyl)piperidine-2,4-dione]
28 | 0.093 µM | COC1CCC(Oc2cccc(C3(c4ccsc4)CC(=O)C(Sc4ccccc4Cl)C(=O)N3)n2)CC1 (stereo not shown) [Example 320, 5-(2-chlorophenyl)sulfanyl-4-hydroxy-2-[6-(4-methoxycyclohexoxyl)-2-pyridyl]-2-(3-thienyl)-1,3-dihydropyridin-6-one]
29 | 0.069 µM | O=C1CC(c2ccc(N3CC4(COC4)C3)cc2)(c2ccsc2)NC(=O)C1Sc1ccccc1Cl (stereo not shown) [Example 45, 3-(2-chlorophenyl) sulfanyl-6-[4-(2-oxa-6-azaspiro[3.3]heptan-6-yl)phenyl]-6-(3-thienyl)piperidine-2,4-dione]
30 | 0.013 µM | O=C1CC(c2ccsc2)(c2cccc(Oc3ccc(Cl)cc3)n2)NC(=O)C1Sc1ccccc1Cl (stereo not shown) [Example 175, 6-[6-(4-chlorophenoxy)-2-pyridyl]-3-(2-chlorophenyl) sulfanyl-6-(3-thienyl) piperidine-2,4-dione]
31 | 0.016 µM | O=C1CC(c2ccsc2)(c2cccc(N3CCc4ccc(CO)cc43)n2)NC(=O)C1Sc1ccccc1Cl (stereo not shown) [Example 177, 3-(2-chlorophenyl)sulfanyl-6-[6-[6-(hydroxymethyl)indolin-1-yl]-2-pyridyl]-6-(3-thienyl)piperidine-2,4-dione]
32 | 0.006 µM | O=C1CC(c2ccsc2)(c2cccc(Oc3ccc(F)c(C(F)(F)F)c3)n2)NC(=O)C1Sc1ccccc1Cl (stereo not shown) [Example 123]
33 | 0.027 µM | CC1(COc2cccc(C3(c4ccsc4)CC(=O)C(Sc4ccccc4Cl)C(=O)N3)n2)CC1 (single isomer, unassigned) [Example 206, 3-(2-chlorophenyl)sulfanyl-6-[6-[(1-methylcyclopropyl)methoxy]-2-pyridyl]-6-(3-thienyl)piperidine-2,4-dione]
34 | 0.013 µM | O=C1CC(c2ccsc2)(c2cccc(Oc3ccc(F)c(Cl)c3)n2)NC(=O)C1Sc1ccccc1Cl (single isomer, unassigned) [Example 83, 6-(6-(3-chloro-4-fluoro-phenoxy)pyridin-2-yl)-3-((2-chlorophenyl)thio)-6-(thiophen-3-yl) piperidine-2,4-dione]
